Target: T1, PRKCA (PKC alpha) (Homo sapiens, UniProt P17252)
T1 construct: purchased Thermo Fisher Scientific (Life Technologies) SelectScreen
Experiment: SelectScreen Z'LYTE
Assay type: biochemical
How it was run: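 SelectScreen broad panel; activity (Z'LYTE, Adapta) plus binding formats. ATP: Km app for CSF1R Z'LYTE; 10 for CAMK1 Adapta. Readout = % per kinase.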

Compound: CN(C(=O)CN1CCOCC1)c1ccc2sc3c(-c4cccc5c(=O)cc(N6CC7CCC(C6)O7)oc45)cccc3c2c1 [NU5455]
- inhibition at 1 µM: -2%
